According to patent publication US8192962B2, “Processes for detecting toxic substances” (Daikin Industries, Ltd., priority 2001, dated 2012):

Test system: Genes belonging to other category
Experiment: DNA chip mRNA expression in yeast, genes belonging to other category (Table 9)
Assay type: cell-based, Saccharomyces cerevisiae S288C
In short: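 S. cerevisiae S288C grown at 25° C in YPD were exposed in log phase for two hours to one toxic chemical at a growth-inhibiting, non-lethal concentration; untreated cells served as control. Poly(A) mRNA was reverse-transcribed with Cy3/Cy5-dUTP and hybridized to a whole-genome yeast DNA chip at 65° C for over 12 hours; values are fluorescence ratios versus untreated.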

CN(C)C(=S)SSC(=S)N(C)C [(10), Tetramethylthiuram disulfide]
The level of expressed mRNA in the presence of chemical substance/The level of expressed mRNA in the absence of chemical substance (yeast gene YAR009C): 1.4
The level of expressed mRNA in the presence of chemical substance/The level of expressed mRNA in the absence of chemical substance (yeast gene YAR010C): 1.1
The level of expressed mRNA in the presence of chemical substance/The level of expressed mRNA in the absence of chemical substance (yeast gene YBL005W-A): 1.5
The level of expressed mRNA in the presence of chemical substance/The level of expressed mRNA in the absence of chemical substance (yeast gene YBL041W): 2.6
The level of expressed mRNA in the presence of chemical substance/The level of expressed mRNA in the absence of chemical substance (yeast gene YBL043W): 14.7
The level of expressed mRNA in the presence of chemical substance/The level of expressed mRNA in the absence of chemical substance (yeast gene YBL078C): 15.2
The level of expressed mRNA in the presence of chemical substance/The level of expressed mRNA in the absence of chemical substance (yeast gene YBL101C): 1.4
The level of expressed mRNA in the presence of chemical substance/The level of expressed mRNA in the absence of chemical substance (yeast gene YBR010W): 0.7
The level of expressed mRNA in the presence of chemical substance/The level of expressed mRNA in the absence of chemical substance (yeast gene YBR031W): 1.0
The level of expressed mRNA in the presence of chemical substance/The level of expressed mRNA in the absence of chemical substance (yeast gene YBR170C): 4.2
The level of expressed mRNA in the presence of chemical substance/The level of expressed mRNA in the absence of chemical substance (yeast gene YBR201W): 1.0
The level of expressed mRNA in the presence of chemical substance/The level of expressed mRNA in the absence of chemical substance (yeast gene YBR214W): 3.5
The level of expressed mRNA in the presence of chemical substance/The level of expressed mRNA in the absence of chemical substance (yeast gene YBR239C): 1.2
The level of expressed mRNA in the presence of chemical substance/The level of expressed mRNA in the absence of chemical substance (yeast gene YBR286W): 1.6
The level of expressed mRNA in the presence of chemical substance/The level of expressed mRNA in the absence of chemical substance (yeast gene YBR290W): 1.8
The level of expressed mRNA in the presence of chemical substance/The level of expressed mRNA in the absence of chemical substance (yeast gene YCL020W): 2.4
The level of expressed mRNA in the presence of chemical substance/The level of expressed mRNA in the absence of chemical substance (yeast gene YCL027W): 16.3
The level of expressed mRNA in the presence of chemical substance/The level of expressed mRNA in the absence of chemical substance (yeast gene YCL033C): 1.4
The level of expressed mRNA in the presence of chemical substance/The level of expressed mRNA in the absence of chemical substance (yeast gene YCR004C): 2.1
The level of expressed mRNA in the presence of chemical substance/The level of expressed mRNA in the absence of chemical substance (yeast gene YCR062W): 1.3
The level of expressed mRNA in the presence of chemical substance/The level of expressed mRNA in the absence of chemical substance (yeast gene YCR071C): 1.2
The level of expressed mRNA in the presence of chemical substance/The level of expressed mRNA in the absence of chemical substance (yeast gene YCR088W): 0.9
The level of expressed mRNA in the presence of chemical substance/The level of expressed mRNA in the absence of chemical substance (yeast gene YCR091W): 1.2
The level of expressed mRNA in the presence of chemical substance/The level of expressed mRNA in the absence of chemical substance (yeast gene YDL008W): 3.0
The level of expressed mRNA in the presence of chemical substance/The level of expressed mRNA in the absence of chemical substance (yeast gene YDL097C): 2.3
The level of expressed mRNA in the presence of chemical substance/The level of expressed mRNA in the absence of chemical substance (yeast gene YDL238C): 2.7
The level of expressed mRNA in the presence of chemical substance/The level of expressed mRNA in the absence of chemical substance (yeast gene YDR055W): 2.4
The level of expressed mRNA in the presence of chemical substance/The level of expressed mRNA in the absence of chemical substance (yeast gene YDR080W): 2.6
The level of expressed mRNA in the presence of chemical substance/The level of expressed mRNA in the absence of chemical substance (yeast gene YDR084C): 0.6
The level of expressed mRNA in the presence of chemical substance/The level of expressed mRNA in the absence of chemical substance (yeast gene YDR085C): 2.3
The level of expressed mRNA in the presence of chemical substance/The level of expressed mRNA in the absence of chemical substance (yeast gene YDR104C): 2.7
The level of expressed mRNA in the presence of chemical substance/The level of expressed mRNA in the absence of chemical substance (yeast gene YDR115W): 1.0
The level of expressed mRNA in the presence of chemical substance/The level of expressed mRNA in the absence of chemical substance (yeast gene YDR169C): 1.4
The level of expressed mRNA in the presence of chemical substance/The level of expressed mRNA in the absence of chemical substance (yeast gene YDR188W): 1.6
The level of expressed mRNA in the presence of chemical substance/The level of expressed mRNA in the absence of chemical substance (yeast gene YDR259C): 1.8
The level of expressed mRNA in the presence of chemical substance/The level of expressed mRNA in the absence of chemical substance (yeast gene YDR264C): 3.4
The level of expressed mRNA in the presence of chemical substance/The level of expressed mRNA in the absence of chemical substance (yeast gene YDR276C): 2.7
The level of expressed mRNA in the presence of chemical substance/The level of expressed mRNA in the absence of chemical substance (yeast gene YDR315C): 1.6
The level of expressed mRNA in the presence of chemical substance/The level of expressed mRNA in the absence of chemical substance (yeast gene YDR329C): 1.0
The level of expressed mRNA in the presence of chemical substance/The level of expressed mRNA in the absence of chemical substance (yeast gene YDR358W): 3.2
The level of expressed mRNA in the presence of chemical substance/The level of expressed mRNA in the absence of chemical substance (yeast gene YDR378C): 1.3
The level of expressed mRNA in the presence of chemical substance/The level of expressed mRNA in the absence of chemical substance (yeast gene YDR388W): 0.9
The level of expressed mRNA in the presence of chemical substance/The level of expressed mRNA in the absence of chemical substance (yeast gene YDR427W): 2.0
The level of expressed mRNA in the presence of chemical substance/The level of expressed mRNA in the absence of chemical substance (yeast gene YDR432W): 0.8
The level of expressed mRNA in the presence of chemical substance/The level of expressed mRNA in the absence of chemical substance (yeast gene YDR481C): 1.6
